# Test results published in US20240285502A1, “HAIR GROWTH AGENT” (ADJUVANT HOLDINGS CO., LTD., priority 2021, published 2024).
# Tested on: VEGF gene expression in human dermal papilla cells
# Assay: Evaluation of human dermal papilla cell VEGF gene expression (real-time PCR)
# Type: cell-based
# Conditions: 72 hours stimulation, relative to negative control group, GAPDH internal standard, FIG. 1
# Description: The VEGF gene is expressed in dermal papilla cells, and contributes to expression of such effects as increase in hair shaft diameter and improving maximum hair shaft length and improving hair shaft elongation rate and hair shaft growth promotion at head hair, beard, eyebrows, and/or eyelashes. Human dermal papilla cells were therefore used, and evaluation was carried out with respect to increase in VEGF gene expression for the respective components. Human dermal papilla cells (Catalog No. CA60205a; derived from person; Toyobo Co., Ltd. (Japan)) were purchased, testing and evaluation being carried out with maintenance and culture of cells being performed as described in the protocol. As drugs for testing, drug solutions of the following respective concentrations (final concentrations) were prepared and used. • Comparative Example 1: 30 μM minoxidil • Working Example 1: 0.3125 μM phytosphingosine • Working Example 2: 1.25 μM phytosphingosine • Working Example 3: Liquid mixture of 30 μM minoxidil and 1.25 μM phytosphingosine A 24-well plate was seeded with human dermal papilla cells so as to obtain 6×10^3 thereof per well. Following culture for 1 day within a CO2 incubator (5% CO2; 37° C.), the culture medium was replaced with culture medium which contained the respective drugs for testing. The cell plate was thereafter returned to the CO2 incubator, and this was further cultured for 72 hours. […] The GAPDH gene was used as an internal standard, the amount of VEGF gene expression being calculated relative to the negative control group. […] Concentration of the recovered RNA was measured using a NanoDrop Lite (Catalog No. ND-LITE; Thermo Fisher Scientific K.K.), and this was stored at -80° C. until the following cDNA creation procedure. […] II cDNA synthesis 5× Ready Mix (Catalog No. NE-LS64; Nippon Genetics Co., Ltd. (Japan)) was used to synthesize cDNA. […] II cDNA synthesis 5× Ready Mix was added to 16 μL of this sample solution, and this was agitated by vortexing. […]
row,SMILES,change in amount of expression of the VEGF gene
1,"CCCCCCCCCCCCCC[C@@H](O)[C@@H](O)[C@@H](N)CO [Working Example 1, phytosphingosine]",increase in dosage-dependent fashion in the amount of expression of the VEGF gene as compared with the control group
2,"CCCCCCCCCCCCCC[C@@H](O)[C@@H](O)[C@@H](N)CO [Working Example 2, phytosphingosine]",increase in dosage-dependent fashion in the amount of expression of the VEGF gene as compared with the control group
3,CCCCCCCCCCCCCC[C@@H](O)[C@@H](O)[C@@H](N)CO [phytosphingosine],significantly greater than that which was produced as a result of action of minoxidil
